Tests used:
[1] = published values; cited from earlier work
COR L23/CPR = assay: Growth of cancer cell lines, MTT reactivity (COR L23/CPR); format: cell-based, human; conditions: mean drug concentration causing 50% cell killing, 3-4 experiments, 72 to 96 h, platinum resistant variant, read-out: IC 50 (μM) COR L23/CPR
Experimental: (§2) In these experiments cancer cell lines were cultured in standard tissue culture medium supplemented with 10% fetal calf serum (FCS) at 37° C. In an atmosphere of 5% CO2 in 96 well round bottom microtitre plates. The cultures were treated with either ferrocene-containing β-diketones or their rhodium complexes at varying concentrations for 72 to 96 h, and the extent of cell growth was assayed by MTT [3-(4,5-dimethylthiazol-2yl)-2,5-diphenyl tetrazolium bromide] reactivity, which detects only viable cells.

CoLo 320DM = assay: Growth of cancer cell lines, MTT reactivity (CoLo 320DM); format: cell-based, human; conditions: mean drug concentration causing 50% cell killing, 3-4 experiments, 72 to 96 h, multidrug resistant line, read-out: IC 50 (μM) CoLo 320DM
Experimental: (§1) The sensitivities of the two cancer cell lines HeLa, which is a sensitive human cervix epitheloid carcinoma cell line, and CoLo 320DM, which is an intrinsically multidrug resistant human colon adeno-carcinoma cell line, to 13 of the complexes of the invention was tested.

HeLa = assay: Growth of cancer cell lines, MTT reactivity (HeLa); format: cell-based, human; conditions: mean drug concentration causing 50% cell killing, 3-4 experiments, 72 to 96 h, read-out: IC 50 (μM) HeLa
Experimental: as §1

COR L23 = assay: Growth of cancer cell lines, MTT reactivity (COR L23); format: cell-based, human; conditions: mean drug concentration causing 50% cell killing, 3-4 experiments, 72 to 96 h, read-out: IC 50 (μM) COR L23
Experimental: as §2

[2] = tested on: PHA-stimulated human lymphocytes; assay: Proliferation of PHA-stimulated human lymphocytes, MTT reactivity; conditions: for IC50: read-out: IC 50 (μM) PHA-stimulated lymphocytes, mean drug concentration causing 50% cell killing, PHA 2.5 μg/ml, 72 h, MTT; for Tumor specificity: activity against tumor cells versus stimulated normal human lymphocytes: tumor cells versus PHA-stimulated lymphocytes (Table 1)
Experimental: In these experiments suspensions of purified human mononuclear leukocytes were cultured in RPMI medium supplemented with 10% fetal calf serum (FCS) at 37° C. in an atmosphere of 5% CO2 in 96 well round bottom microtitre plates. To some of the wells a mitogen (phytohaemagglutinin, PHA) was added at a concentration of 2.5 μg/ml. The cultures were treated with either ferrocene-containing β-diketones or their rhodium complexes at varying concentrations for 72 h, and the extent of cell growth was assayed by MTT reactivity.

[3] = tested on: Chinese hamster ovary (CHO) cells; assay: Survival of CHO cells after irradiation under hypoxic conditions; format: cell-based; conditions: for Mean Inactivation Dose (Gy) / Dose Modifying Factor (DMF): hypoxic conditions; for Mean Inactivation Dose (Gy): 8 MV photon beam; for Dose Modifying Factor (DMF): ratio of mean inactivation doses; for Sensitivity of CHO cells to irradiation under hypoxic conditions (in words): submicromolar concentrations
Experimental: CHO cells were treated in glass test tubes with non-toxic concentrations (0.39 μM and 0.78 μM) of the two rhodium-ferrocene complexes [Rh(fctca)(cod)] and [Rh(fctfa)(cod)] and irradiated with an 8 MV photon beam in a modular incubator chamber with a 2 cm tissue equivalent wax buildup (8MVmax) under aerobic and hypoxic conditions.
Neither of the two rhodium complexes tested increased the sensitivity of CHO cells to irradiation in an aerobic environment (results not shown). However, both complexes increased the sensitivity of CHO cells under hypoxic conditions (FIGS. 4 and 5). A dose-modifying factor of 2.9 was obtained under hypoxic conditions for 0.78 μM [Rh(fctfa)(cod)] (Table 2) and 1.9 for 0.39 μM [Rh(fctca)(cod)] (Table 3). The dose-modifying factors were calculated as the ratio of mean inactivation doses [calculated from the respective inactivation parameters obtained from the linear quadratic fit of the cell growth fraction (S)]. Published dose modifying factors (DMFs) measured for cisplatin range from 1.2-2 (Chibber R, Stratford I J, O'Neill P, Sheldon P W, Ahmed I, Lee B. 1985. The interaction between radiation and complexes of cis-Pt (II) and Rh (II): Studied at the molecular level. Int J Radiat Biol 48:513-524; Van De Vaart,. P J M, Klaren, H M, Holland I, Begg A C. 1997. Oral platinum analogue JM216, a radiosensitizer in oxic murine cells. Int J Radiat Biol 72(6):675-683).

[4] = Anticancer activity of synthesis intermediates; conditions: intermediates of the published synthesis route

Compound | IC50 (COR L23/CPR) [µM] | IC50 (CoLo 320DM) [µM] | IC50 (HeLa) [µM] | IC50 (COR L23) [µM] | IC50 [2] [µM] | further results
N.N.[Cl][Pt][Cl] [cisplatin] |  |  |  |  |  | Published dose modifying factors (DMFs) [1]: 1.2-2
O=C(CC(=O)C(Cl)(Cl)Cl)[c-]1cccc1.[Fe+2].c1cc[cH-]c1 [Hfctca, ferrocenoyltrichloroacetone] | 20.1 | 28.4 | 37.7 | 12.5 | 67.5 | Radiosensitisation, initial tests (in words) [3]: promising
C1=CCCC=CCC1.O=C(C=C([O-])[c-]1cccc1)[c-]1cccc1.[Fe+2].[Rh+].[Ru+2].c1cc[cH-]c1.c1cc[cH-]c1 [[Rh(fcrcm)(cod)], (η^4-1,5-cyclooctadiene)(1-ferrocenyl-3-ruthenocenyl-1,3-propanedionato-κ^2O,O′)rhodium(1)] | 20.1 | 29.2 | 17.1 | 10.1 |  | 
C1=C\CC/C=C\CC/1.CC(=O)/C=C(/C)O.[Rh] [Rh(acac)(cod)] |  | > 100 | 97.3 |  |  | 
C1=CCCC=CCC1.O=C(C=C([O-])c1ccccc1)[c-]1cccc1.[Fe+2].[Rh+].c1cc[cH-]c1 [Rh(bfcm)(cod), (η^4-1,5-cyclooctadiene)(1-ferrocenyl-3-phenyl-1,3-propanedionato-κ^2O,O′)rhodium(1)] | 22 | 87.1 | 28.3 | 22.5 | 97.2 | 
C1=CCCC=CCC1.O=C(C=C([O-])C(F)(F)F)[c-]1cccc1.[Fe+2].[Rh+].c1cc[cH-]c1 [Rh(fctfa)(cod), (η^4-1,5-cyclooctadiene)(1-ferrocenyl-4,4,4-trifluooro-1,3-butanedionato-κ^2O,O′)rhodium(1)] | 5.8 | 13.4 | 12.5 | 8.5 | 41.6 | Tumor specificity: activity against tumor cells versus stimulated normal human lymphocytes [2]: 4-5 times; Mean Inactivation Dose (Gy) ([3]; 0.39 μM complex): 2.41 Gy; Dose Modifying Factor (DMF) ([3]; 0.39 μM complex): 2.6; Mean Inactivation Dose (Gy) ([3]; 0.78 μM complex): 2.19 Gy; Dose Modifying Factor (DMF) ([3]; 0.78 μM complex): 2.9; Sensitivity of CHO cells to irradiation under hypoxic conditions (in words) [3]: compare favorably with cisplatin
C1=CCCC=CCC1.O=C(C=C[O-])[c-]1cccc1.[Rh+].[Ru+2].c1cc[cH-]c1 [[Rh(RcH)(cod)], (η^4-1,5-cyclooctadiene)(1-ruthenocenyl-1,3-propanedionato-κ^2O,O′)rhodium(1)] | 39.6 | 68.8 | 52 | 34 |  | 
ferrocenoyltrifluoroacetone [Hfctfa] | 6.3 | 7.3 | 6.8 | 4.5 | 83.1 | Tumor specificity: activity against tumor cells versus stimulated normal human lymphocytes [2]: eight; Radiosensitisation, initial tests (in words) [3]: promising
C1=CCCC=CCC1.CC(=O)C=C([O-])[c-]1cccc1.[Rh+].[Ru+2].c1cc[cH-]c1 [[Rh(rca)(cod)], (η^4-1,5-cyclooctadiene)(1-ruthenocenyl-1,3-butanedionato-κ^2O,O′)rhodium(1)] | 2.74 | 3 | 4.86 | 0.18 |  | 
C1=CCCC=CCC1.O=C(C=C([O-])C(F)(F)F)[c-]1cccc1.[Rh+].[Ru+2].c1cc[cH-]c1 [[Rh(rctfa)(cod)], (η^4-1,5-cyclooctadiene)(1-ruthenocenyl-4,4,4-trifluooro-1,3-butanedionato-κ^2O,O′)rhodium(1)] | 48 | 67.4 | 54.7 | 49.2 |  | 
C1=C\CC/C=C\CC/1.C1=C\CC/C=C\CC/1.[Cl-].[Cl-].[Rh].[Rh] [[RhCl(cod)]2] |  |  |  |  |  | Significant anticancer activity [4]: none
diferrocenoylmethane [Hdfcm] | 74.4 | 64.3 | 54.4 | 75.4 | > 100 | 
[Cl][Rh]([Cl])[Cl] [RhCl3] |  |  |  |  |  | Significant anticancer activity [4]: none
ferrocenoylacetone [Hfca] |  | 57.1 | 66.6 |  |  | 
C1=CCCC=CCC1.O=C(C=C([O-])[c-]1cccc1)c1ccccc1.[Rh+].[Ru+2].c1cc[cH-]c1 [[Rh(brcm)(cod)], (η^4-1,5-cyclooctadiene)(1-ruthenocenyl-3-phenyl-1,3-propanedionato-κ^2O,O′)rhodium(1)] | 14.1 | 20.4 | 16.2 | 15.8 |  | 
C1=CCCC=CCC1.O=C(C=C([O-])C(Cl)(Cl)Cl)[c-]1cccc1.[Fe+2].[Rh+].c1cc[cH-]c1 [Rh(fctca)(cod), (η^4-1,5-cyclooctadiene)(1-ferrocenyl-4,4,4-trichloro-1,3-butanedionato-κ^2O,O′)rhodium(1)] | 2 | 3 | 7.9 | 1.3 | 4.7 | Mean Inactivation Dose (Gy) ([3]; 0.39 μM complex): 3.73 Gy; Dose Modifying Factor (DMF) ([3]; 0.39 μM complex): 1.9; Mean Inactivation Dose (Gy) ([3]; 0.78 μM complex): 4.46 Gy; Dose Modifying Factor (DMF) ([3]; 0.78 μM complex): 1.6; Sensitivity of CHO cells to irradiation under hypoxic conditions (in words) [3]: compare favorably with cisplatin
O=CCC(=O)[c-]1cccc1.[Fe+2].c1cc[cH-]c1 [Hfch, ferrocenoylacetaldehyde] |  | 80.8 | 73.4 |  |  | 
C1=CCCC=CCC1.CC([O-])=CC(=O)[c-]1cccc1.[Fe+2].[Rh+].c1cc[cH-]c1 [Rh(fca)(cod), (η^4-1,5-cyclooctadiene)(1-ferrocenyl-1,3-butanedionato-κ^2O,O′)rhodium(1)] |  | 56.6 | 64.4 |  |  | 
acetyl ferrocene |  |  |  |  |  | Significant anticancer activity [4]: none
(η^4-1,5-cyclooctadiene)(1,3-diferrocenyl-1,3-propanedionato-κ^2O,O′)rhodium(1) [Rh(dfcm)(cod)] | 30.8 | 70.8 | 18.4 | 19.9 | 42.2 | 
(η^4-1,5-cyclooctadiene)(1-ferrocenyl-1,3-propanedionato-κ^2O,O′)rhodium(1) [Rh(FcH)(cod)] |  | 35.4 | 62.4 |  |  | 
benzoylferrocenoylmethane [Hbfcm] | 80.4 | 85.1 | 54.2 | 66.8 | > 100 | 

Reference: patent US20040092584A1, “Substance or composition for the treatment of cancer” (priority 2000, published 2004)
